Results on 11 compounds are retold here after ChEMBL document CHEMBL1201862, “PubChem BioAssay data set” (2004).

Structures are written as SMILES.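 Values below derive from 48-hour exposures of cells grown in 96-well plates, with endpoints linearly interpolated between the two concentrations bracketing the appropriate inhibition level. GI50 = concentration required for 50% inhibition of growth.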 Active and inactive are the calls of the source. Cut-off read from the data, not from the text of the source: active = GI50 up to about 1.1 µM and inactive = higher.

Among the test systems are ACHN; NCI-H226; SNB-75; M14; SK-MEL-5; OVCAR-4; SF-539; NCI/ADR-RES; CAKI-1; MDA-MB-231; SF-268; OVCAR-5; NCI-H522; TK-10; HCT-116; SF-295; NCI-H460; OVCAR-8; HL-60; HT-29.
Holding throughout (experiment): NCI anticancer screen, dose series, 48 h

In the case of `Brc1ccc(/N=N/N2CCCCC2)cc1`, the GI50 in the experiment on ACHN is 76.6 µM (inactive); in the experiment with NCI-H226 it was > 100 µM (inactive); with SNB-75, 41.9 µM (inactive); in the experiment with M14, 85.9 µM (inactive); with SK-MEL-5 it was 34.5 µM (inactive); in the experiment on OVCAR-4, 74.8 µM (inactive). Further, the GI50 was > 100 µM (inactive) in the experiment with SF-539; 51.3 µM (inactive) in the experiment on NCI/ADR-RES; 88.1 µM (inactive) in the experiment on CAKI-1; > 100 µM (inactive) in the experiment on MDA-MB-231; 66.1 µM (inactive) in the experiment on SF-268; 80.7 µM (inactive) in the experiment with OVCAR-5. Moreover, the GI50 with NCI-H522 was 24 µM (inactive); in the experiment with TK-10 it was 59.2 µM (inactive); in the experiment on HCT-116 it was 34.2 µM (inactive); in the experiment with SF-295, 35.6 µM (inactive); in the experiment with NCI-H460, 45 µM (inactive); in the experiment on OVCAR-8 it was 45.6 µM (inactive).

Turning to `O=C(O)c1c(CC(Cc2ccc3c(c2)CCC3)C(=O)O)ccc2c1CCC2` (stereo unspecified), the GI50 in the experiment with ACHN, with NCI-H226, in the experiment with M14, in the experiment on SK-MEL-5, in the experiment on OVCAR-4 and in the experiment on SF-539 was > 100 µM (inactive) each time. Besides, the GI50 with NCI/ADR-RES, in the experiment on HL-60, in the experiment with CAKI-1, with MDA-MB-231, in the experiment with OVCAR-5 and in the experiment with HT-29 was > 100 µM (inactive) in each case. Further, the GI50 with NCI-H522, with TK-10, in the experiment with HCT-116, in the experiment with SF-295, in the experiment with NCI-H460 and with OVCAR-8 was > 100 µM (inactive) each time.

Consider `COc1ccc(-c2c(C#N)c(N)n(C3OCC(O)C(O)C3O)c(=S)c2C#N)cc1` (stereo unspecified), for which the GI50 in the experiment on ACHN, in the experiment on NCI-H226, in the experiment with SNB-75, with M14, in the experiment on SK-MEL-5 and in the experiment on SF-539 was > 100 µM (inactive) throughout. Moreover, the GI50 in the experiment with NCI/ADR-RES, with HL-60, in the experiment on CAKI-1, in the experiment with MDA-MB-231, in the experiment on SF-268 and with OVCAR-5 was > 100 µM (inactive) throughout. Further, the GI50 in the experiment with HT-29, in the experiment with NCI-H522, in the experiment with TK-10, with SF-295, in the experiment on NCI-H460 and with OVCAR-8 was > 100 µM (inactive) throughout.

As to `COc1cc(Nc2cc(Cl)cc(Cl)c2)nc(N)n1`, the GI50 was 18.9 µM (inactive) in the experiment with ACHN; 19.4 µM (inactive) with NCI-H226; 15.5 µM (inactive) in the experiment with SNB-75; 20.1 µM (inactive) with M14; 15.3 µM (inactive) with SK-MEL-5; 17.9 µM (inactive) in the experiment with OVCAR-4. Moreover, the GI50 is 15.7 µM (inactive) in the experiment on SF-539; 20.5 µM (inactive) with NCI/ADR-RES; 20.4 µM (inactive) in the experiment on CAKI-1; 18.9 µM (inactive) with MDA-MB-231; 19.5 µM (inactive) in the experiment on SF-268; 40 µM (inactive) in the experiment on OVCAR-5. Further, the GI50 with HT-29 was 17.8 µM (inactive); in the experiment on NCI-H522, 20.4 µM (inactive); in the experiment on TK-10, 21.6 µM (inactive); in the experiment with HCT-116, 16.9 µM (inactive); in the experiment on SF-295, 18.6 µM (inactive); with NCI-H460, 16.6 µM (inactive). Also, the GI50 with OVCAR-8 was 18.9 µM (inactive).

In the case of `COc1cc(OC)c(/C=N/N=C(\N)NO)c(OC)c1`, the GI50 was 15.6 µM (inactive) in the experiment with ACHN; > 100 µM (inactive) in the experiment on NCI-H226; 0.0255 µM (active) in the experiment with SNB-75; 95.5 µM (inactive) in the experiment on M14; > 100 µM (inactive) with SK-MEL-5; > 100 µM (inactive) with OVCAR-4. Further, the GI50 in the experiment with SF-539, with NCI/ADR-RES, in the experiment on CAKI-1, in the experiment on MDA-MB-231, in the experiment on SF-268 and in the experiment on OVCAR-5 was > 100 µM (inactive) throughout. Moreover, the GI50 with HT-29 is > 100 µM (inactive); with NCI-H522, > 100 µM (inactive); in the experiment on TK-10, > 100 µM (inactive); with HCT-116, > 100 µM (inactive); in the experiment with SF-295, 33 µM (inactive); with NCI-H460, 91.4 µM (inactive). The GI50 in the experiment with OVCAR-8 is > 100 µM (inactive).

Take `Cc1cc(S(=O)(=O)Nc2nc3ccccc3nc2-c2cccc([N+](=O)[O-])c2)c(S)cc1Cl`: the GI50 with ACHN was 27.8 µM (inactive); with NCI-H226, 21.4 µM (inactive); in the experiment on M14, 17.2 µM (inactive); in the experiment with SK-MEL-5 it was 15 µM (inactive); in the experiment with OVCAR-4 it was 27.5 µM (inactive); in the experiment on SF-539, 22.8 µM (inactive). The GI50 is 19.9 µM (inactive) in the experiment on NCI/ADR-RES; 20.4 µM (inactive) in the experiment with HL-60; 18.3 µM (inactive) in the experiment with CAKI-1; 58.5 µM (inactive) in the experiment on MDA-MB-231; 25.9 µM (inactive) in the experiment with SF-268; 36.6 µM (inactive) in the experiment on OVCAR-5. The GI50 was 17.9 µM (inactive) with HT-29; 16.8 µM (inactive) in the experiment on NCI-H522; 35.2 µM (inactive) in the experiment on TK-10; 18.8 µM (inactive) in the experiment on HCT-116; 25.1 µM (inactive) with SF-295; 11 µM (inactive) in the experiment with NCI-H460. The GI50 with OVCAR-8 is 34.5 µM (inactive).

Turning to `COc1ccc(N[S+]([O-])C2CCCCC2)cc1` (stereo unspecified), the GI50 with ACHN, with NCI-H226, in the experiment on SNB-75, in the experiment on M14, in the experiment on SK-MEL-5 and in the experiment with SF-539 was > 100 µM (inactive) each time. For the same compound, the GI50 in the experiment on NCI/ADR-RES, in the experiment on HL-60, in the experiment with CAKI-1, with MDA-MB-231, with SF-268 and in the experiment on OVCAR-5 was > 100 µM (inactive) throughout. The GI50 in the experiment on HT-29, in the experiment on NCI-H522, in the experiment on TK-10, with HCT-116, in the experiment with SF-295 and in the experiment with NCI-H460 was > 100 µM (inactive) each time. The GI50 with OVCAR-8 was > 100 µM (inactive).

For `CCOC(=O)/C(C(=O)Nc1ccc(Cl)cc1)=C(/N)N1CCOCC1`, the GI50 in the experiment on ACHN, in the experiment with NCI-H226, in the experiment on SNB-75, with M14, in the experiment on OVCAR-4 and in the experiment on SF-539 was > 100 µM (inactive) throughout. Besides, the GI50 in the experiment on NCI/ADR-RES, in the experiment on HL-60, with CAKI-1, with MDA-MB-231, in the experiment with SF-268 and in the experiment with OVCAR-5 was > 100 µM (inactive) each time. For the same compound, the GI50 in the experiment on HT-29, in the experiment with NCI-H522, in the experiment on TK-10, in the experiment with HCT-116, in the experiment with SF-295 and in the experiment with NCI-H460 was > 100 µM (inactive) throughout. Moreover, the GI50 in the experiment with OVCAR-8 was > 100 µM (inactive).

`COC(=O)Cn1c(=O)oc2nc(-c3ccccc3)cc(C(F)(F)F)c21`: the GI50 was > 100 µM (inactive) in the experiment with ACHN; 35.8 µM (inactive) in the experiment with NCI-H226; > 100 µM (inactive) in the experiment with SNB-75; > 100 µM (inactive) in the experiment with M14; 26.7 µM (inactive) in the experiment with SK-MEL-5; 86.3 µM (inactive) with OVCAR-4. Moreover, the GI50 with SF-539 is > 100 µM (inactive); in the experiment on NCI/ADR-RES, 23.8 µM (inactive); with CAKI-1, > 100 µM (inactive); in the experiment with MDA-MB-231 it was > 100 µM (inactive); with SF-268, > 100 µM (inactive); with OVCAR-5 it was > 100 µM (inactive). The GI50 in the experiment on HT-29 was 32.8 µM (inactive); in the experiment with NCI-H522, 25.3 µM (inactive); in the experiment on TK-10, > 100 µM (inactive); in the experiment on HCT-116 it was 42.9 µM (inactive); in the experiment with SF-295, 45.3 µM (inactive); in the experiment with NCI-H460, > 100 µM (inactive). Moreover, in the experiment on OVCAR-8, the GI50 was 18.3 µM (inactive).

In the case of `COc1ccc2c(c1)c1c(n2CCN2CCOCC2)-c2ccccc2CC1`, the GI50 is 38.5 µM (inactive) with ACHN; 21.4 µM (inactive) in the experiment on NCI-H226; 39.7 µM (inactive) in the experiment on SNB-75; 41.4 µM (inactive) with M14; 20.7 µM (inactive) in the experiment on SK-MEL-5; 48.4 µM (inactive) in the experiment with OVCAR-4. In addition, the GI50 is 23.1 µM (inactive) with SF-539; 35.5 µM (inactive) in the experiment with NCI/ADR-RES; > 100 µM (inactive) in the experiment on CAKI-1; 29.4 µM (inactive) in the experiment on MDA-MB-231; 42.3 µM (inactive) with SF-268; 71.4 µM (inactive) in the experiment with OVCAR-5. For the same compound, the GI50 in the experiment with HT-29 is 36.6 µM (inactive); in the experiment with NCI-H522, 35.4 µM (inactive); in the experiment with TK-10, 48.1 µM (inactive); in the experiment with HCT-116, 33.5 µM (inactive); in the experiment on SF-295, 27.9 µM (inactive); in the experiment with NCI-H460, 31.9 µM (inactive). For the same compound, the GI50 in the experiment with OVCAR-8 is 34.2 µM (inactive).

As to `COc1cc(CC(C)NC(C)=O)cc(OC)c1` (stereo unspecified), the GI50 is > 100 µM (inactive) in the experiment on ACHN; > 100 µM (inactive) in the experiment on NCI-H226; 34.4 µM (inactive) with SNB-75; > 100 µM (inactive) in the experiment on M14; > 100 µM (inactive) in the experiment with SK-MEL-5; > 100 µM (inactive) with SF-539. Also, the GI50 in the experiment with NCI/ADR-RES, in the experiment with HL-60, in the experiment with CAKI-1, in the experiment with MDA-MB-231, in the experiment on SF-268 and with OVCAR-5 was > 100 µM (inactive) in each case. The GI50 in the experiment with HT-29, in the experiment on NCI-H522, in the experiment on TK-10, in the experiment with HCT-116, in the experiment with SF-295 and in the experiment on NCI-H460 was > 100 µM (inactive) each time. Also, the GI50 with OVCAR-8 was > 100 µM (inactive).
